The NIST ThermoML archive (doi:10.1021/acs.jced.7b00176)

What was measured:
[1] = Liquid, Vibrating tube method
[2] = xn = mol fraction of the nth substance listed; details: Liquid, Vibrating tube method, x1 = 1

COCCOCCOC [2,5,8-trioxanonane]
[1]
Details | mass density [kg/m3]
283.67 K, 40000 kPa | 978.49
283.67 K, 60000 kPa | 989.12
283.67 K, 80000 kPa | 998.75
283.67 K, 100000 kPa | 1007.71
283.68 K, 10000 kPa | 960.29
283.68 K, 20000 kPa | 966.68
283.68 K, 30000 kPa | 972.8
283.69 K, 100 kPa | 953.48
283.69 K, 1000 kPa | 954.15
283.69 K, 5000 kPa | 956.94
303.47 K, 100 kPa | 933.69
303.47 K, 1000 kPa | 934.43
303.48 K, 5000 kPa | 937.55
303.48 K, 10000 kPa | 941.31
303.49 K, 20000 kPa | 948.42
303.49 K, 30000 kPa | 955.17
303.49 K, 40000 kPa | 961.41
303.49 K, 60000 kPa | 973.02
303.5 K, 80000 kPa | 983.33
303.5 K, 100000 kPa | 992.97
322.62 K, 100 kPa | 914.41
322.62 K, 1000 kPa | 915.3
322.62 K, 5000 kPa | 918.77
322.62 K, 10000 kPa | 923.02
322.62 K, 20000 kPa | 930.99
322.62 K, 30000 kPa | 938.31
322.62 K, 40000 kPa | 945.16
322.62 K, 60000 kPa | 957.74
322.62 K, 80000 kPa | 968.98
322.62 K, 100000 kPa | 979.2
342.49 K, 100 kPa | 894.03
342.49 K, 1000 kPa | 894.98
342.49 K, 5000 kPa | 898.96
342.5 K, 10000 kPa | 903.66
342.5 K, 20000 kPa | 912.57
342.51 K, 30000 kPa | 920.68
342.51 K, 40000 kPa | 928.18
342.51 K, 60000 kPa | 941.77
342.51 K, 80000 kPa | 953.82
342.52 K, 100000 kPa | 964.68
362.51 K, 100 kPa | 873.45
362.51 K, 1000 kPa | 874.46
362.51 K, 5000 kPa | 879.02
362.52 K, 10000 kPa | 884.41
362.52 K, 20000 kPa | 894.33
362.52 K, 30000 kPa | 903.29
362.52 K, 40000 kPa | 911.53
362.53 K, 60000 kPa | 926.3
362.53 K, 80000 kPa | 939.26
362.53 K, 100000 kPa | 950.89

CCCCO [butan-1-ol]
[1]
Details | mass density [kg/m3]
283.63 K, 80 kPa | 817.19
283.63 K, 5000 kPa | 820.7
283.64 K, 1000 kPa | 817.88
283.64 K, 40000 kPa | 842.03
283.64 K, 60000 kPa | 852.39
283.64 K, 100000 kPa | 870.33
283.65 K, 30000 kPa | 836.43
283.65 K, 80000 kPa | 861.72
283.66 K, 10000 kPa | 824.01
283.66 K, 20000 kPa | 830.39
303.45 K, 100 kPa | 801.81
303.45 K, 1000 kPa | 802.54
303.46 K, 5000 kPa | 805.65
303.46 K, 10000 kPa | 809.35
303.47 K, 20000 kPa | 816.29
303.47 K, 30000 kPa | 822.84
303.47 K, 40000 kPa | 828.87
303.47 K, 60000 kPa | 839.95
303.48 K, 80010 kPa | 849.82
303.48 K, 100000 kPa | 858.94
323.25 K, 1000 kPa | 787.19
323.26 K, 100 kPa | 786.36
323.26 K, 5000 kPa | 790.63
323.27 K, 10000 kPa | 794.68
323.27 K, 20000 kPa | 802.33
323.27 K, 30000 kPa | 809.41
323.28 K, 40000 kPa | 816
323.28 K, 60000 kPa | 827.77
323.28 K, 80000 kPa | 838.31
323.28 K, 100000 kPa | 847.65
343.03 K, 100 kPa | 769.54
343.03 K, 1000 kPa | 770.45
343.04 K, 5000 kPa | 774.32
343.04 K, 10000 kPa | 778.88
343.05 K, 20000 kPa | 787.37
343.05 K, 30000 kPa | 795.06
343.05 K, 40000 kPa | 802.13
343.05 K, 60000 kPa | 814.83
343.05 K, 80000 kPa | 826.08
343.05 K, 100000 kPa | 836.2
362.68 K, 100 kPa | 752.67
362.68 K, 1000 kPa | 753.64
362.68 K, 30000 kPa | 781.04
362.69 K, 5000 kPa | 758.03
362.69 K, 10000 kPa | 763.16
362.69 K, 20000 kPa | 772.56
362.7 K, 40000 kPa | 788.67
362.7 K, 60000 kPa | 802.36
362.71 K, 80000 kPa | 814.44
362.71 K, 100000 kPa | 825.18

CCCCO [butan-1-ol] + COCCOCCOC
[2]
Details | mass density [kg/m3]
283.63 K, 80 kPa | 817.19
283.63 K, 5000 kPa | 820.7
283.64 K, 1000 kPa | 817.88
283.64 K, 40000 kPa | 842.03
283.64 K, 60000 kPa | 852.39
283.64 K, 100000 kPa | 870.33
283.65 K, 30000 kPa | 836.43
283.65 K, 80000 kPa | 861.72
283.66 K, 10000 kPa | 824.01
283.66 K, 20000 kPa | 830.39
303.45 K, 100 kPa | 801.81
303.45 K, 1000 kPa | 802.54
303.46 K, 5000 kPa | 805.65
303.46 K, 10000 kPa | 809.35
303.47 K, 20000 kPa | 816.29
303.47 K, 30000 kPa | 822.84
303.47 K, 40000 kPa | 828.87
303.47 K, 60000 kPa | 839.95
303.48 K, 80010 kPa | 849.82
303.48 K, 100000 kPa | 858.94
323.25 K, 1000 kPa | 787.19
323.26 K, 100 kPa | 786.36
323.26 K, 5000 kPa | 790.63
323.27 K, 10000 kPa | 794.68
323.27 K, 20000 kPa | 802.33
323.27 K, 30000 kPa | 809.41
323.28 K, 40000 kPa | 816
323.28 K, 60000 kPa | 827.77
323.28 K, 80000 kPa | 838.31
323.28 K, 100000 kPa | 847.65
343.03 K, 100 kPa | 769.54
343.03 K, 1000 kPa | 770.45
343.04 K, 5000 kPa | 774.32
343.04 K, 10000 kPa | 778.88
343.05 K, 20000 kPa | 787.37
343.05 K, 30000 kPa | 795.06
343.05 K, 40000 kPa | 802.13
343.05 K, 60000 kPa | 814.83
343.05 K, 80000 kPa | 826.08
343.05 K, 100000 kPa | 836.2
362.68 K, 100 kPa | 752.67
362.68 K, 1000 kPa | 753.64
362.68 K, 30000 kPa | 781.04
362.69 K, 5000 kPa | 758.03
362.69 K, 10000 kPa | 763.16
362.69 K, 20000 kPa | 772.56
362.7 K, 40000 kPa | 788.67
362.7 K, 60000 kPa | 802.36
362.71 K, 80000 kPa | 814.44
362.71 K, 100000 kPa | 825.18
